Structures can show the parent of a compound that is named as a salt.
Row | Structure (SMILES) | melting point
1 | CCCCCOc1ccc(Cn2c(C)nc3ccc(C(=O)NS(=O)(=O)NCCC)nc32)c(Cl)c1 [Example 25, 5-((1-propylaminosulfonyl)carbamoyl)-3-(2-chloro-4-(1-pentyloxy)benzyl)-2-methyl-3H-imidazo[4,5-b]pyridine] | 155 to 158 °C
2 | CCC/C=C/S(=O)(=O)NC(=O)c1ccc2nc(C)n(Cc3ccc(NC(=O)OC(C)(C)C)cc3Cl)c2n1 [Example 112, 3-(4-(N-t-butoxycarbonylamino)-2-chlorobenzyl)-2-methyl-5-((E)-1-penten-1-ylsulfonylcarbamoyl)-3H-imidazo[4,5-b]pyridine] | 215 to 216 °C
3 | CCCCS(=O)(=O)NC(=O)c1ccc2nc(C)n(Cc3ccc(OCC4CCCC4)cc3Cl)c2n1 [Example 28, 5-(1-butanesulfonylcarbamoyl)-3-(2-chloro-4-((cyclopentylmethyl)oxy)benzyl)-2-methyl-3H-imidazo[4,5-b]pyridine] | 180 to 181 °C
4 | CCCCCOc1ccc(Cn2c(C)nc3ccc(C(=O)NS(=O)(=O)NCCCC)nc32)c(Cl)c1 [Example 26, 5-((1-butylaminosulfonyl)carbamoyl)-3-(2-chloro-4-(1-pentyloxy)benzyl)-2-methyl-3H-imidazo[4,5-b]pyridine] | 136 to 138 °C
5 | CCC/C=C/S(=O)(=O)NC(=O)c1ccc2nc(C)n(Cc3ncc(NC(=O)OC(C)(C)C)cc3Cl)c2n1 (as salt: sodium) [Example 130, 3-[(5-(N-(tert-butoxycarbonyl)amino)-3-chloropyridin-2-yl)methyl]-2-methyl-5-((E)-1-penten-1-ylsulfonylcarbamoyl)-3H-imidazo[4,5-b]pyridine] | 202 to 204 °C
6 | CCCCCS(=O)(=O)NC(=O)c1ccc2nc(C)n(Cc3ccc(N(C)C(=O)OC(C)(C)C)cc3Cl)c2n1.[Na] | 231 to 233 °C
7 | CCCCCS(=O)(=O)NC(=O)c1ccc2nc(C)n(Cc3cnc(Cl)cc3Cl)c2n1 | 161 to 163 °C
8 | CCCCS(=O)(=O)NC(=O)c1ccc2nc(C)n(Cc3ccc(NC(=O)OC(C)(C)C)cc3Cl)c2n1 [Example 109, 5-(1-butanesulfonylcarbamoyl)-3-(4-(N-t-butoxycarbonylamino)-2-chlorobenzyl)-2-methyl-3H-imidazo[4,5-b]pyridine] | 229 to 230 °C
9 | CCCCCS(=O)(=O)NC(=O)c1cc(C)c2nc(C)n(Cc3ccc(C#Cc4ccccc4)cc3Cl)c2n1.[Na] | 175 to 178 °C
10 | CCCCNS(=O)(=O)NC(=O)c1ccc2nc(C)n(Cc3ccc(OCC)cc3Cl)c2n1 [Example 11, 5-((1-butylaminosulfonyl)carbamoyl)-3-(2-chloro-4-ethoxybenzyl)-2-methyl-3H-imidazo[4,5-b]pyridine] | 175 to 177 °C
11 | CCCCCS(=O)(=O)NC(=O)c1cc(C)c2nc(C)n(Cc3ccc(OCCC)cc3Cl)c2n1 [Example 35, 3-(2-chloro-4-(1-propoxy)benzyl)-2,7-dimethyl-5-(1-pentanesulfonylcarbamoyl)-3H-imidazo[4,5-b]pyridine] | 161 to 162 °C
12 | CCCCCS(=O)(=O)NC(=O)c1cc(C)c2nc(C)n(Cc3ccc(N(CC)C(=O)OC(C)(C)C)cc3Cl)c2n1 [Example 81, 3-[4-(N-(tert-butoxycarbonyl)-N-ethylamino)-2-chlorobenzyl]-2,7-dimethyl-5-(1-pentanesulfonylcarbamoyl)-3H-imidazo[4,5-b]pyridine] | 190 to 191 °C
13 | CCCCCS(=O)(=O)NC(=O)c1ccc2nc(C)n(Cc3ccc(N(C)CC)cc3Cl)c2n1 [Example 43, 3-(2-chloro-4-(ethylmethylamino)benzyl)-2-methyl-5-(1-pentanesulfonylcarbamoyl)-3H-imidazo[4,5-b]pyridine] | 148 to 149 °C
14 | CCCCCS(=O)(=O)NC(=O)c1ccc2nc(C)n(Cc3ccc(OC(C)C)cc3Cl)c2n1 [Example 14, 3-(2-chloro-4-isopropoxybenzyl)-2-methyl-5-(1-pentanesulfonylcarbamoyl)-3H-imidazo[4,5-b]pyridine] | 130 to 133 °C
15 | CCCCCS(=O)(=O)NC(=O)c1cc(C)c2nc(C)n(Cc3ccc(N(C)C(=O)OC(C)(C)C)cc3Cl)c2n1 [Example 77, 3-(4-(N-(tert-butoxycarbonyl)-N-methylamino)-2-chlorobenzyl)-2,7-dimethyl-5-(1-pentanesulfonylcarbamoyl)-3H-imidazo[4,5-b]pyridine] | 193 to 194 °C

Second part, the molecule after the results:

Row | melting point | Structure (SMILES)
16 | 169 to 170 °C | CCCCCS(=O)(=O)NC(=O)c1ccc2nc(C)n(Cc3ncc(C(F)(F)F)cc3Cl)c2n1 [Example 57, 3-[(3-chloro-5-(trifluoromethyl)-2-pyridyl)methyl]-2-methyl-5-(1-pentanesulfonylcarbamoyl)-3H-imidazo[4,5-b]pyridine]
17 | 83 to 85 °C | CCCCCN(C)c1ccc(Cn2c(C)nc3ccc(C(=O)NS(=O)(=O)CCCCC)nc32)c(Cl)c1 [Example 52, 3-(2-chloro-4-(methyl-(1-pentyl)amino)benzyl)-2-methyl-5-(1-pentanesulfonylcarbamoyl)-3H-imidazo[4,5-b]pyridine]
18 | 120 to 121 °C | CCCCCS(=O)(=O)NC(=O)c1ccc2nc(C)n(Cc3ccc(N(C)C(=O)OCc4ccccc4)cc3Cl)c2n1 [Example 146, 3-(4-(N-(benzyloxycarbonyl)-N-methylamino)-2-chlorobenzyl)-2-methyl-5-(1-pentanesulfonylcarbamoyl)-3H-imidazo[4,5-b]pyridine]
19 | 229 to 231 °C | CCCCCS(=O)(=O)NC(=O)c1ccc2nc(C)n(Cc3ccc4c(nc(C)n4C)c3Cl)c2n1 [Example 120, 3-[(4-chloro-1,2-dimethyl-1H-benzimidazol-5-yl)methyl]-2-methyl-5-(1-pentanesulfonylcarbamoyl)-3H-imidazo[4,5-b]pyridine]
20 | 224 to 225 °C | CCCCCS(=O)(=O)NC(=O)c1ccc2nc(C)n(Cc3ccc(-c4ccccc4)nc3Cl)c2n1 [Example 127, 3-[(2-chloro-6-phenylpyridin-3-yl)methyl]-2-methyl-5-(1-pentanesulfonylcarbamoyl)-3H-imidazo[4,5-b]pyridine]
21 | 208 to 209 °C | CCCNS(=O)(=O)NC(=O)c1ccc2nc(C)n(Cc3ccc(-c4ccccc4)cc3Cl)c2n1 [Example 60, 3-(2-chloro-4-phenylbenzyl)-2-methyl-5-[(1-propylaminosulfonyl)carbamoyl]-3H-imidazo[4,5-b]pyridine]
22 | 184 to 185 °C | CCCCCS(=O)(=O)NC(=O)c1ccc2nc(C)n(Cc3ccc(-c4ccco4)cc3Cl)c2n1 [Example 70, 3-[2-chloro-4-(2-furyl)benzyl]-2-methyl-5-(1-pentanesulfonylcarbamoyl)-3H-imidazo[4,5-b]pyridine]
23 | 155 to 156 °C | CCCCCS(=O)(=O)NC(=O)c1ccc2nc(C)n(Cc3ncc(Cl)cc3Cl)c2n1 [Example 123, 3-[(3,5-dichloropyridin-2-yl)methyl]-2-methyl-5-(1-pentanesulfonylcarbamoyl)-3H-imidazo[4,5-b]pyridine]
24 | 177 to 178 °C | CCCCCS(=O)(=O)NC(=O)c1cc(C)c2nc(C)n(Cc3ccc(-c4ccco4)cc3Cl)c2n1 [Example 86, 3-[2-chloro-4-(2-furyl)benzyl]-2,7-dimethyl-5-(1-pentanesulfonylcarbamoyl)-3H-imidazo[4,5-b]pyridine]
25 | 145 to 146 °C | CCCCS(=O)(=O)NC(=O)c1ccc2nc(CC)n(Cc3ccc(OCC4CCCCC4)cc3Cl)c2n1 [Example 67, 5-(1-butanesulfonylcarbamoyl)-3-(2-chloro-4-(cyclohexylmethyloxy)benzyl)-2-ethyl-3H-imidazo[4,5-b]pyridine]
26 | 233 to 234 °C | CCC/C=C/S(=O)(=O)NC(=O)c1ccc2nc(C)n(Cc3ccc(NC(=O)OCC)cc3Cl)c2n1 [Example 114, 3-(4-ethoxycarbonylamino-2-chlorobenzyl)-2-methyl-5-((E)-1-penten-1-ylsulfonylcarbamoyl)-3H-imidazo[4,5-b]pyridine]
27 | 129 to 130 °C | CCCCCS(=O)(=O)NC(=O)c1ccc2nc(C)n(Cc3ccc(N(C)CCC)cc3Cl)c2n1 [Example 44, 3-(2-chloro-4-(methyl-(1-propyl)amino)benzyl)-2-methyl-5-(1-pentanesulfonylcarbamoyl)-3H-imidazo[4,5-b]pyridine]
28 | 236 to 237 °C | CCCCS(=O)(=O)NC(=O)c1ccc2nc(C)n(Cc3ccc(NC(=O)OCC)cc3Cl)c2n1 [Example 111, 3-(4-ethoxycarbonylamino-2-chlorobenzyl)-2-methyl-5-(1-butanesulfonylcarbamoyl)-3H-imidazo[4,5-b]pyridine]
29 | 129 to 130 °C | CCCCCS(=O)(=O)NC(=O)c1ccc2nc(C)n(Cc3ccc(N(C)CCCC)cc3Cl)c2n1 [Example 45, 3-(4-((1-butyl)methylamino)-2-chlorobenzyl)-2-methyl-5-(1-pentanesulfonylcarbamoyl)-3H-imidazo[4,5-b]pyridine]
30 | 231 to 233 °C | CCCCS(=O)(=O)NC(=O)c1cc(C)c2nc(C)n(Cc3ccc(-c4ccco4)cc3Cl)c2n1 [Example 88, 3-[2-chloro-4-(2-furyl)benzyl]-2,7-dimethyl-5-(1-butanesulfonylcarbamoyl)-3H-imidazo[4,5-b]pyridine]
31 | 181 to 182 °C | CCCCS(=O)(=O)NC(=O)c1ccc2nc(C)n(Cc3ccc(NC(=O)OC(C)C)cc3Cl)c2n1 [Example 103, 5-(1-butanesulfonylcarbamoyl)-3-(2-chloro-4-(N-(isopropoxycarbonyl)amino)benzyl)-2-methyl-3H-imidazo[4,5-b]pyridine]
32 | 169 to 170 °C | CCCCCS(=O)(=O)NC(=O)c1ccc2nc(C)n(Cc3ccc(N(C)C(=O)OCCC)cc3Cl)c2n1 [Example 95, 3-(2-chloro-4-(N-methyl-N-(1-propoxycarbonyl)amino)benzyl)-2-methyl-5-(1-pentanesulfonylcarbamoyl)-3H-imidazo[4,5-b]pyridine]
33 | 198 to 199 °C | CCCCCS(=O)(=O)NC(=O)c1ccc2nc(C)n(Cc3ccc(NC(=O)OC(C)C)cc3Cl)c2n1 [Example 108, 3-(4-(N-(isopropoxycarbonyl)amino)-2-chlorobenzyl)-2-methyl-5-(1-pentanesulfonylcarbamoyl)-3H-imidazo[4,5-b]pyridine]
